Assays:
Type in all cases: functional
Staphylococcus aureus [1] = assay: Antimicrobial activity against methicillin-resistant Staphylococcus aureus COL at 100 ug/disk after 24 hrs by disk diffusion method; conditions: read-out: IZ
Staphylococcus aureus [2] = assay: Antimicrobial activity against methicillin-resistant Staphylococcus aureus 5 at 100 ug/disk after 24 hrs by disk diffusion method; conditions: read-out: IZ
Helicobacter pylori [3] = assay: Antimicrobial activity against Helicobacter pylori ATCC 43504 at 100 ug/disk after 4 days by disk diffusion method; conditions: ATCC 43504, 96 h, read-out: IZ
Helicobacter pylori [4] = assay: Antimicrobial activity against Helicobacter pylori ATCC 43504 at 0.25 ug/disk after 4 days by disk diffusion method; conditions: ATCC 43504, 96 h, read-out: IZ
Staphylococcus aureus [5] = assay: Antimicrobial activity against methicillin-resistant Staphylococcus aureus COL at 20 ug/disk after 24 hrs by disk diffusion method; conditions: read-out: IZ
Staphylococcus aureus [6] = assay: Antimicrobial activity against methicillin-resistant Staphylococcus aureus 5 at 20 ug/disk after 24 hrs by disk diffusion method; conditions: read-out: IZ

SMILES | zone of inhibition at 100 µg/disc (Staphylococcus aureus [1]) [mm] | zone of inhibition at 100 µg/disc (Staphylococcus aureus [2]) [mm] | zone of inhibition at 100 µg/disc (Helicobacter pylori [3]) [mm] | zone of inhibition at 0.25 µg/disc (Helicobacter pylori [4]) [mm] | zone of inhibition at 20 µg/disc (Staphylococcus aureus [5]) [mm] | zone of inhibition at 20 µg/disc (Staphylococcus aureus [6]) [mm]
COc1c(O)c(OC)c2oc(-c3ccc(O)cc3)cc(=O)c2c1O | 12.5 | 23.8 | 10.5 | – | – | –
CC1(C)S[C@@H]2[C@H](NC(=O)[C@H](N)c3ccc(O)cc3)C(=O)N2[C@H]1C(=O)O [AMOXICILLIN] | – | – | – | 33 | – | –
CC(=O)OCC1=C(C(=O)O)N2C(=O)[C@@H](NC(=O)CSc3ccncc3)[C@H]2SC1 [CEPHAPIRIN] | – | – | – | – | 8.2 | 9.4
COc1cc(-c2cc(=O)c3c(O)c(OC)c(O)c(OC)c3o2)ccc1O [SUDACHITIN] | 12 | 25.4 | 14 | – | – | –
